Reference: patent publication US20200148803A1, “POLYMERIZABLE MULTIFUNCTIONAL ANTIMICROBIAL QUATERNARY AMMONIUM MONOMERS, METHODS OF SYNTHESIS, AND USES THEREOF” (ADA Foundation, priority 2018, published 2020)

How the values were obtained:
[1] = tested on: human liver cells (HepG2-AD13); test: Direct contact cytotoxicity, Luciferase Assay System, HepG2-AD13 cells; format: cell-based; conditions: 6 h
Method: Immortalized human liver cells (hereafter HepG2-AD13) were obtained from collaborators at Aichi Gakuin University, Japan. The cells were maintained (37° C., 5% CO2) in Dulbecco's Modified Eagle's medium supplemented with 10% fetal bovine serum. For experiments, cells were obtained from a subconfluent stock culture.
Direct contact cytotoxicity testing was conducted by exposing cells to two-fold serial dilutions of AMmis2 (Table 8) to approximate the maximum possible exposure, assuming 7% mass fraction in the composite with a maximum of 2% leaching. To account for multiplicity and variable size of restorations, a four-fold greater dilution was also included in the testing. After 6 h, cells were assessed for cell viability using a Luciferase Assay System (Promega Corp., Madison, Wis.). Negative controls were without the AMmis2 and/or cells. Mean+standard error was obtained from five independent replicates tested in quadruplicate.

[2] = tested on: human gingival fibroblasts (HGF); test: Direct contact cytotoxicity, LIVE/DEAD viability, HGF cells; format: cell-based
Method: (§1) Immortalized human gingival fibroblasts (HGF) were purchased from Applied Biological Materials, Inc. (Richmond, British Columbia, Canada). […] For experiments, cells were obtained from a subconfluent stock culture.
(§2) Direct contact cytotoxicity testing was conducted as previously described^7, 8. Briefly, cells were exposed to two-fold serial dilutions of AMadh series monomers or AMsil series monomers to approximate the maximum possible exposure, (Table 9). Table 9 illustrates biocompatibility testing using maximum possible monomer exposure (mmol/L), assuming 7% mass fraction in the restorative with a maximum of 2% leaching. To account for multiplicity and variable size of restorations, a two- and four-fold greater dilution was also included in the testing. After 24 and 72 h, cells were assessed for cell viability using the LIVE/DEAD® Viability/Cytotoxicity kit (Life Technologies, Corp., Grand Island, N.Y.). Cellular metabolic activity was subsequently assessed using the CellTiter® AQueous One Solution Reagent (Promega, Corp., Madison, Wis.). Negative controls were without the novel monomer and/or cells. Mean+standard error was obtained from five independent replicates tested in triplicate.

[3] = tested on: mouse subcutaneous connective tissue fibroblasts (NCTC clone 929, CCL1); test: Direct contact cytotoxicity, LIVE/DEAD viability, CCL1 cells; format: cell-based
[4] = Degree of vinyl conversion (DVC) by near infra-red spectra of copolymer beams; format: physicochemical
Method: (§3) Experimental resin (UPE) was formulated from the commercially available monomers urethane dimethacrylate (UDMA, 50.91% w/w), polyethylene glycol extended urethane dimethacrylate (PEG-U, 18.18% w/w), and ethyl 2-(hydroxymethyl)acrylate (EHMA, 30.91% w/w). A conventional visible light initiator system comprised of camphorquinone (0.2% w/w) and ethyl-4-N,N-dimethylamino benzoate (4EDMAB, 0.8% w/w) was utilized. […] Copolymer specimens (beams) were prepared by depositing UPE (UPE resin control) and AM-UPE resins into glass molds (2 mm×2 mm×25 mm) and photopolymerizing them with a dental curing light (Triad 2000, Dentsply, Charlotte, N.C., USA) for 2 minutes from two sides. Copolymer specimens (pellets) were prepared by depositing UPE and AM-UPE resins into a stainless-steel mold (1 mm×16 mm), sandwiched between two sheets of Mylar film and two glass slides and photopolymerized in the same manner as the beam samples. Degree of vinyl conversion (DVC) of UPE and AM-UPE resins was determined utilizing beam samples by collecting the near infra-red (NIR) spectra (Nexus 670, ThermoFisher, Madison, Wis., USA) before and 24 h after polymerization and calculating the reduction in absorption band at 6165 cm^−1 corresponding to the vinyl (C═C—H) overtone signal. By maintaining a constant specimen thickness, a need for an invariant internal standard was eliminated. The DVC was calculated as: […]
(§4) where Area(polymer) and Area(monomer) correspond to the areas under 6165 cm^−1 peaks after and before the polymerization, respectively. After DVC analysis, flexural strength (FS) and elastic modulus (E) of beam specimen were determined employing the Universal Testing Machine (Instron 5500R, Instron Corp., Canton, Mass., USA). The load was applied (at cross-head speed of 1 mm/min) to the center of a specimen positioned on a test device with supports 20 mm apart. The FS and E of the specimens (three replicates/experimental group) was calculated as instructed in the ISO4049:2009 document. Changes in hydrophilicity/hydrophobicity of UPE resins due to the introduction of AM monomers were assessed on pellet specimen by sessile drop contact angle (CA) measurements (drop shape analyzer DSA100, Krüss GmbH, Hamburg, Germany). Following the deposition of 4 μL water droplets on the resin pellets, the pellets were imaged after 1 min resting time with a camera at the points of intersection (three-phase contact points) between the drop contour and the projection of the surface (baseline). The CA water values were calculated employing the Krüss Advance software. At least four repetitive measurements were performed in each group. Analysis of variance (ANOVA) and Newman-Keuls multiple paired comparisons (at 95% confidence level) were used to analyze the experimental data as a function of resin composition and establish a statistical significance of differences between the experimental groups (WINKS 7.0.9, TexaSoft, Cedar Hills, Tex., USA).

[5] = Sessile drop water contact angle (CA) on resin pellets; format: physicochemical
Method: as §3, §4

[6] = tested on: human gingival fibroblasts (HGF); test: Cellular metabolic activity (CellTiter AQueous One Solution Reagent), HGF cells; format: cell-based; conditions: two-fold serial dilutions, 24 h and 72 h
Method: as §1, §2

CCL1 cells = test: Cellular metabolic activity (CellTiter AQueous One Solution Reagent), CCL1 cells; format: cell-based; conditions: two-fold serial dilutions, 24 h and 72 h
[7] = two-fold serial dilutions, 24 h and 72 h

For “2-(methacryloyloxy)-N,N,N-trimethylethan-1-aminium methacrylate [AMmis2]”, the “effect on HepG2-AD13 cells compared to negative control” value ([1]; concentrations ≤1.812 mmol/L) was “did not exert a significant effect” and the “relative luminescence units, fold greater than at all lower concentrations” value ([1]; concentrations ≥3.623 mmol/L) was “at least 1.5 fold”.
In the case of `C=C(C)C(=O)OCC[N+](C)(C)CCC[Si](OC)(OC)OC.[I-]` [AMsil1, N-(2-(methacryloyloxy)ethyl)-N,N-dimethyl-3-(trimethoxysilyl)propan-1-aminium iodide], the “exposure time reduced HGF viability, difference of means” value ([2]; 24 h vs 72 h, independent of concentration) is reported as 19.73, the “number of live HGFs” value ([2]; lower concentrations (≤0.13 mmol/L)) is reported as “decreased” and the “effect of monomer concentration on HGF cell viability” value [2, 7] is reported as “exerted a main effect”. For the same compound, the “dead CCL1 cells” value ([3]; 0.07 mmol/L, 24 h) was 128.0 ± 27.1 % Control, the “live CCL1 cells” value ([3]; 0.07 mmol/L, 24 h) was 156.8 ± 21.4 % Control and the “dead CCL1 cells” value ([3]; 0.07 mmol/L, 72 h) was 134.0 ± 36.5 % Control. The “live CCL1 cells” value ([3]; 0.07 mmol/L, 72 h) was 122.5 ± 5.6 % Control, the “dead CCL1 cells” value ([3]; 0.13 mmol/L, 24 h) was 85.1 ± 11.2 % Control and the “live CCL1 cells” value ([3]; 0.13 mmol/L, 24 h) was 145.1 ± 14.8 % Control. The “dead CCL1 cells” value ([3]; 0.13 mmol/L, 72 h) was 140.3 ± 32.7 % Control, the “live CCL1 cells” value ([3]; 0.13 mmol/L, 72 h) was 122.1 ± 8.5 % Control and the “dead CCL1 cells” value ([3]; 0.26 mmol/L, 24 h) was 96.8 ± 15.5 % Control. For the same compound, the “live CCL1 cells” value ([3]; 0.26 mmol/L, 24 h) was 154.5 ± 25.0 % Control, the “live CCL1 cells” value ([3]; 0.26 mmol/L, 72 h) was 108.9 ± 18.6 % Control and the “dead CCL1 cells” value ([3]; 0.52 mmol/L, 24 h) was 117.4 ± 27.1 % Control. For the same compound, the “live CCL1 cells” value ([3]; 0.52 mmol/L, 24 h) was 147.3 ± 20.3 % Control, the “dead CCL1 cells” value ([3]; 0.52 mmol/L, 72 h) was 124.6 ± 22.9 % Control and the “live CCL1 cells” value ([3]; 0.52 mmol/L, 72 h) was 122.9 ± 11.1 % Control. For the same compound, the “dead CCL1 cells” value ([3]; 1.04 mmol/L, 24 h) was 96.0 ± 16.2 % Control, the “live CCL1 cells” value ([3]; 1.04 mmol/L, 24 h) was 157.9 ± 18.8 % Control and the “dead CCL1 cells” value ([3]; 1.04 mmol/L, 72 h) was 128.8 ± 20.2 % Control. The “live CCL1 cells” value ([3]; 1.04 mmol/L, 72 h) was 142.0 ± 6.5 % Control, the “dead CCL1 cells” value ([3]; 2.09 mmol/L, 24 h) was 86.1 ± 11.7 % Control and the “live CCL1 cells” value ([3]; 2.09 mmol/L, 24 h) was 152.5 ± 20.3 % Control. For the same compound, the “dead CCL1 cells” value ([3]; 2.09 mmol/L, 72 h) was 147.6 ± 38.5 % Control, the “live CCL1 cells” value ([3]; 2.09 mmol/L, 72 h) was 136.0 ± 7.2 % Control and the “dead CCL1 cells” value ([3]; 4.17 mmol/L, 24 h) was 85.8 ± 13.1 % Control. The “live CCL1 cells” value ([3]; 4.17 mmol/L, 24 h) was 161.3 ± 15.2 % Control, the “dead CCL1 cells” value ([3]; 4.17 mmol/L, 72 h) was 91.6 ± 13.7 % Control and the “live CCL1 cells” value ([3]; 4.17 mmol/L, 72 h) was 132.1 ± 6.7 % Control. For the same compound, the “dead CCL1 cells” value ([3]; 8.34 mmol/L, 24 h) was 93.0 ± 15.4 % Control, the “live CCL1 cells” value ([3]; 8.34 mmol/L, 24 h) was 149.6 ± 37.4 % Control and the “dead CCL1 cells” value ([3]; 8.34 mmol/L, 72 h) was 106.8 ± 7.4 % Control. The “live CCL1 cells” value ([3]; 8.34 mmol/L, 72 h) was 110.8 ± 12.3 % Control, the “exposure time reduced the number of live CCL1 cells, fold difference of mean” value ([3]; 24 h vs 72 h) was 1.2 fold and the “effect of monomer concentration on CCL1 cell viability” value [3, 7] was “did not exert a statistical effect”. The “reduction of DVC relative to UPE resin control” value ([4]; 10 mass percent in UPE resin) was “approximately 27%”, the “reduction of DVC relative to UPE resin control” value ([4]; 20 mass percent in UPE resin) was roughly 17% and the CA ([5]; 10 mass % monomer in UPE resin) was 46.9±5.9 °. The “reduction of CA relative to UPE resin control” value ([5]; 10 mass % monomer in UPE resin) was 23%, the “effect on hydrophobic-hydrophilic properties of the copolymer” value ([5]; 10 mass percent in UPE resin) was “a shift towards the lower CA values” and the “effect on hydrophobic-hydrophilic properties of the copolymer” value ([5]; 20 mass percent in UPE resin) was “maintained the hydrophobic-hydrophilic balance”. For the same compound, the “effect on metabolic activity of HGF cells” value [6] was “did not statistically affect the metabolic activity” and the “effect of monomer concentration on CCL1 metabolic activity” value (CCL1 cells) was “did not affect”.
